In patent US8129356B2, “Bmx mediated signal transduction in irradiated vascular endothelium” (Vanderbilt University, priority 2007, dated 2012):
“Also recorded” adds a separate entry of the source.

Tests used:
[1] = tested on: HUVEC; test: In vitro studies disclosed herein, comparison of Tec family inhibitors; format: cell-based, human
[2] = target: T1, Bmx (Homo sapiens, UniProt P51813); format: cell-based; conditions: 30 μM pre-incubation, 3 Gy
T1 construct: host or cells: HUVEC
T1 sequence (P51813 1-675): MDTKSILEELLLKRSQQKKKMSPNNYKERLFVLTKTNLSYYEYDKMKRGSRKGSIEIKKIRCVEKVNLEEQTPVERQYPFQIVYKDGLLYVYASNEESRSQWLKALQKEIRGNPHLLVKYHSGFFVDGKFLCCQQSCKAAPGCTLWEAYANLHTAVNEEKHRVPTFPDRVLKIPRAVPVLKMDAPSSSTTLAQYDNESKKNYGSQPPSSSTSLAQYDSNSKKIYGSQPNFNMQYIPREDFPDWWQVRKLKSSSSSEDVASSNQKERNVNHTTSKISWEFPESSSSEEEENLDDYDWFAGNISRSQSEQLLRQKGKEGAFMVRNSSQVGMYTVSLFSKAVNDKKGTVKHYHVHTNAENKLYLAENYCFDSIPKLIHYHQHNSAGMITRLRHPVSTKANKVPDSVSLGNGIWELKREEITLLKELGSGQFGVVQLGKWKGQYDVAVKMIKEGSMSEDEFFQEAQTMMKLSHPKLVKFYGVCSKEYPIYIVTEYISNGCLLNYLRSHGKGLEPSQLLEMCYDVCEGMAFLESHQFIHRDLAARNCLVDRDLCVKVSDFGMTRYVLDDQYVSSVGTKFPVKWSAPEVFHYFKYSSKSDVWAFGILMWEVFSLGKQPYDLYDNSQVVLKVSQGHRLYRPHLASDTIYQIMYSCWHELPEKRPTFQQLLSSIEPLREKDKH
Description: Immunoprecipitation and in vitro kinase assay. HUVECs of passage 3-6 were grown to 70-80% confluency and then serum starved for 5 hours. The cells were then treated with sham or 3 Gy irradiation. After treatment, the cells were incubated at 37° C. with 5% CO2 for the indicated times. For inhibition studies, inhibitor was added at a 1:1000 dilution 60 minutes prior to irradiation. Following incubation, the tissue culture dishes were placed on ice and washed twice with ice cold 1× Phosphate-buffered Saline (PBS) followed by lysis using 400 μM-PER containing protease and phosphatase inhibitors (Sigma-Aldrich Co.) for 5 minutes. The cells were scraped and transferred to Eppendorf tubes, vortexed for 20 seconds, and incubated on ice for 30 minutes. After clearing the lysate by centrifugation at 15,000 g for 15 minutes at 4° C., the supernatant was quantified for protein concentration using the bicinchoninic acid (BCA) method prior to immunoprecipitation. Immunoprecipitation was performed using the CATCH AND RELEASE® v 2.0 system (Upstate Group, LLC, Charlottesville, Va., United States of America) according to manufacturer's protocol with some modification.
Briefly, spin columns containing binding resin were prepared by washing twice with 1× wash buffer (2000 g/30 seconds). […] This was added to the capped spin column which was rotated end-over-end overnight at 4° C. […]

[3] = tested on: HUVEC; test: Clonogenic survival assay in HUVEC; format: cell-based, human; conditions: 30 μM
Description: Clonogenic survival. LLC's or passage 3-6 HUVECs were grown to 70-80% confluency. Cells were washed with 1×PBS, trypsin suspended, and were counted and adjusted to specific densities for each condition. The cells were plated on tissue culture plates and allowed to attach for 4 hours. […] Media was changed after irradiation. 10-14 days after irradiation, the plates were fixed with 70% ethanol and stained with 1% methylene blue. Colonies were then counted using a dissection microscopy with positive colonies containing at least 50 cells. Surviving fraction (SF) was calculated by the equation (number of colonies formed/number of cells plated)/(number of colonies for sham irradiated group/number of cells plated). Dose enhancing ratios were calculated by dividing the dose (Gy) for radiation alone by the dose for radiation plus treatment (normalized for plating efficiency of treatment) for which a SF of 0.2 is achieved.

[4] = tested on: HUVEC; test: Apoptosis assay, Annexin V/propidium iodide flow cytometry; format: cell-based, human; conditions: 24 hours
Description: Apoptosis assays. HUVEC were grown to 70-80% confluency prior to treatment with LFM-A13 or DMSO control. Cells were then irradiated with 0 or 3 Gy and harvested 24 hours after irradiation. Annexin V-FITC Apoptosis Detection kit (BD PharMingen, San Diego, Calif., United States of America) was used to stain cells (propidium iodide (50 ng) and annexin V-FITC (5 ng) were added to 10^5 cells) for flow cytometry according to manufacturer's protocol. For each treatment, the percent of cells undergoing apoptosis (±SE) was calculated. Camptothecin (5 μmol/L) treatment for 6 hours served as positive control

[5] = tested on: HUVEC; test: Apoptosis assay, DAPI staining of nuclei; format: cell-based, human; conditions: 30 μM plus 3 or 6 Gy, 24 hours
Description: HUVEC were also assayed for apoptosis using a 4′,6-Diamidino-2-phenylindole (DAPI) staining of the nuclei to identify cells undergoing morphological changes. […] Cells were returned to the incubator for an additional 24 hr prior to DAPI staining. Multiple high powered fields (at least 7) were examined by an observer who was blinded to the experimental conditions for each of the cultures. […] The mean and standard error were calculated for each treatment group.

[6] = tested on: HUVEC; test: Endothelial closure assay (migration across a gap); format: cell-based, human
Description: Endothelial closure assay. HUVEC of passage 3-6 were grown on glass slides and were subjected to gap formation as described previously (Cuneo et al., 2007). Cells were treated with LFM-A13 or DMSO control prior to 0 or 3 Gy and incubated for the indicated times. Photographs of cell defect and surrounding cells were taken and relative cell density within the defect was calculated as follows: (number of cells/original cell defect area)/(number of cells/surrounding area).

[7] = tested on: HUVEC; test: Endothelial cell tubule formation assay on MATRIGEL; format: cell-based, human; conditions: 30 μM plus 3 Gy, vs either treatment alone
Description: Endothelial cell tubule formation assay. HUVEC of passage 3-6 were grown to 70-80% confluency. Cells were then washed with 1×PBS and suspended by trypsinization. Cells were counted and adjusted to 2.5-5×10^4 cells/ml in media. 75 μl MATRIGEL™ (BD Biosciences) were plated into each well of a 96 well plate and allowed to polymerize at 37° C. Cell suspensions (200 μl; […]) were added to each well. After thirty minutes, DMSO control or LFM-A13 was added. Thirty minutes later, dishes were treated with sham or 3 Gy and were then incubated until tubules had formed in control plates (4-6 hours). Digital photographs were taken of individual wells and tubules were counted by an observer blinded to the treatment conditions. The mean and standard error were calculated (n=3).

[8] = tested on: LLC tumor vasculature; test: Tumor vascular window model; format: in vivo, C57BL/6 mice
Description: Tumor vascular window model. The tumor vascular window model technique is described in Edwards et al., 2002. Briefly, three mice for each group had tumors grown within a vascular window such that tumor vasculature could be visualized within window frames containing a coordinate system for serial photography. Animals were treated with LFM-A13 by i.p. injection 60 minutes prior to 2 Gy irradiation using an 80 kVp superficial X-ray machine (Pantak X-ray Generator; East Haven, Conn., United States of America). Serial color photographs were taken to document blood vessel appearance on days 0-7. Photographs were scanned and processed using ADOBE® PHOTOSHOP® software (Adobe Systems Inc., San Jose, Calif., United States of America) to mark the center of vessels, verified by an observer blinded to treatment groups. Vascular length density (VLD) was quantified for each microscopic field using IMAGE-PRO® Plus v. 5.1 software (Media Cybernetics, Inc. Silver Spring, Md., United States of America). The mean and standard error of VLD in each treatment group were calculated and plotted. All animals used were cared for according to Vanderbilt University's Institutional Animal Care and Use Committees guidelines.

[9] = tested on: LLC hind limb tumor blood vessels; test: Tumor immunohistochemistry (anti-CD34) in hind limb xenograft; format: in vivo, C57BL/6 mice; conditions: 50 mg/kg i.p. daily, 45 minutes before 3 Gy, five treatments
Description: Tumor immunohistochemistry. LLC's were subcutaneously injected into the hind limb of C57BL/6 mice to form xenografts. When tumors grew to 200 mm^3, (approximately 7 days) the mice were treated with five consecutive daily treatments of i.p. LFM-A13 followed 45 minutes later by 3 Gy irradiation using an 80 kVp superficial x-ray generator. Twelve hours following the last radiation treatment, mice were sacrificed and tumors were harvested, fixed in paraffin, and sectioned by the Vanderbilt University Immunohistochemistry Core Facility as described previously (see Cuneo et al., 2007). Immunostaining was with goat anti-CD34 (Santa Cruz Biotechnology) and microvascular photos were analyzed using IMAGE-PRO® software with pixel number quantified.

[10] = tested on: Lewis Lung Carcinoma (LLC) cell line; test: Clonogenic survival assay in LLC; format: cell-based; conditions: prior to 0, 2, 4, or 6 Gy
Description: Clonogenic survival. LLC's or passage 3-6 HUVECs were grown to 70-80% confluency. Cells were washed with 1×PBS, trypsin suspended, and were counted and adjusted to specific densities for each condition. The cells were plated on tissue culture plates and allowed to attach for 4 hours. LFM-A13 or DMSO was added at a 1:1000 dilution followed 60 min later by 0, 2, 4 or 6 Gy. Media was changed after irradiation. 10-14 days after irradiation, the plates were fixed with 70% ethanol and stained with 1% methylene blue. Colonies were then counted using a dissection microscopy with positive colonies containing at least 50 cells. Surviving fraction (SF) was calculated by the equation (number of colonies formed/number of cells plated)/(number of colonies for sham irradiated group/number of cells plated). Dose enhancing ratios were calculated by dividing the dose (Gy) for radiation alone by the dose for radiation plus treatment (normalized for plating efficiency of treatment) for which a SF of 0.2 is achieved.

[11] = tested on: LLC hind limb tumors; test: Tumor growth delay; format: in vivo, C57BL/6 mice; conditions: 5 consecutive days
Description: Tumor growth delay. LLC's were subcutaneously injected into the hind limb of C57/BL6 mice to form xenografts. When tumors grew to 200 mm^3, (approximately 7 days) the mice were treated with five consecutive daily treatments of i.p. LFM-A13 followed 45 minutes later by 3 Gy irradiation using an 80 kVp superficial x-ray generator. Serial measurements of tumor dimensions were taken by caliper and tumor volume was calculated using the modified ellipsoid formula (length×width×depth)/2. The mean and standard error were plotted using Microsoft Excel software.

[12] = target: T1, Bmx; conditions: HUVEC, dose of 25 μM; cited from earlier work
[13] = murine studies, previously published; cited from earlier work

| Structure (SMILES) | effectiveness relative to LFM-A13 [1] | radiation-induced Bmx activation (autophosphorylation) [2] | radiosensitization (surviving fraction, survival curve shift) ([3]; 45 minutes prior to 0, 2, 4, or 6 Gy, colonies over 10 days) | dose enhancing ratio (DER) ([3]; dose ratio at SF of 0.2) | apoptosis, combination with 3 Gy ([4]; 30 μM plus 3 Gy) | early and late apoptosis, drug alone ([4]; 30 μM, sham irradiation) | percent of apoptotic cells, combination with irradiation [5] | endothelial cell closure (relative cell density in gap), drug alone ([6]; 30 μM alone, 12 hours and 24 hours, vs vehicle control) | endothelial cell closure, combination with 3 Gy ([6]; 30 μM for 45 minutes prior to 3 Gy, 12 and 24 hours) | number of tubules formed, combination with 3 Gy [7] | tumor vascular window blood vessels, drug alone ([8]; 50 mg/kg i.p. alone) | tumor blood vessels (mean vascular length density), combination with 2 Gy ([8]; single 50 mg/kg i.p. prior to 2 Gy) | blood vessel formation (CD34 staining), combination with 3 Gy [9] | clonogenic survival compared to DMSO control [10] | tumor growth delay, combination with 3 Gy ([11]; 50 mg/kg i.p. 45 minutes prior to 3 Gy) | tumor growth delay, drug alone ([11]; 50 mg/kg i.p., sham irradiation) | VEGF induced signaling through Bmx inhibition [12] | tolerability [13] |
| --- | --- | --- | --- | --- | --- | --- | --- | --- | --- | --- | --- | --- | --- | --- | --- | --- | --- | --- |
| CC1=C(O)C(=O)[C@@H]2O[C@@H]2C1=O [terreic acid] | at least as effective as LFM-A13 | – | – | – | – | – | – | – | – | – | – | – | – | – | – | – | – | – |
| C/C(O)=C(\C#N)C(=O)Nc1cc(Br)ccc1Br [LFM-A13, (2Z)-2-cyano-N-(2,5-dibromophenyl)-3-hydroxy-2-butenamide] | – | attenuated the activation of Bmx | radiosensitized HUVEC | 1.47 | statistically significant (p<0.001 vs. LFM-A13 or 3 Gy alone) increase in apoptosis | not capable of shifting cells into either early (Q4-1) or late (Q2-1) apoptosis | enhancement of apoptosis | minimal effect on attenuating endothelial cell closure | greater than additive effect | significant reduction (p<0.005) in tubules formed | minimally inhibited | dramatic reduction in tumor blood vessels | most effective at attenuating blood vessel formation | no difference in clonogenic survival | statistically significant enhancement of growth delay; also recorded: more than additive | small growth delay | block VEGF induced signaling | well-tolerated |
